From patent US11802114B2, “Compounds and methods for detection of superoxide” (Promega Corporation, priority 2021, dated 2023)

Tests used:
xanthine oxidase = experiment: Detection of xanthine oxidase activity in vitro; assay type: biochemical; conditions: 25 μl of 75 μM probe, FIG. 5
From the text: Xanthine oxidase (XO) is an enzyme that catalyzes the oxidation of hypoxanthine or xanthine to uric acid and superoxide. XO is normally found in liver and jejunum and plays an important role in the catabolism of purines. During severe liver damage, xanthine oxidase is released into blood and can be used as a marker for liver damage. Here is shown an example of measuring xanthine oxidase activity using pro-luciferin compounds described herein. Purified xanthine oxidase was 3× fold serially diluted in 0.1M Tris (pH7.5). 25 μl of diluted enzyme was transferred into wells of a 96-well assay plate, and the reaction was started by adding 25 μl of 300 μM xanthine and 25 μl of 75 μM Compound 20. After 10, 20, 30, and 60 minutes incubations at 37° C., 75 μl of Luciferin Detection Reagent containing esterases was added to the samples, and luminescence was read after additional 20 minutes incubation at room temperature.

[1] = test system: RAW 247.6 macrophage cell line; experiment: Detection of PMA-induced superoxide production by macrophages; assay type: cell-based; conditions: 50 μl of 50 μM Compound 18 (FIG. 6A) or 100 μM Compound 20 (FIG. 6B), 2 hours at 37° C.; for luminescence signal with PMA treatment: 20 μM PMA
Description: Production of superoxide by macrophages plays an important role in immune response and inflammation. Superoxide is produced by nicotinamide adenine dinucleotide phosphate (NADPH) oxidases (known as NOX enzymes) and is induced by PMA (4β-phorbol-12-myristate-13-acetate). Here is shown an example of measuring PMA-induced superoxide production in RAW 247.6 macrophage cell line. RAW 247.6 cells were plated overnight in DMEM medium with 10% FBS. To start the experiment, the medium was removed, cells were washed once with PBS, and 50 μl of PBS containing 5 mM glucose, 1 mM MgCl2, 0.5 mM CaCl2, and 0.05% BSA was added to the cells in the presence or absence of 20 μM PMA. To measure production of superoxide, 50 μl of 50 μM Compound 18 (FIG. 6A) or 100 μM Compound 20 (FIG. 6B) was added to the cells. Cells were treated for 2 hours at 37° C. with luciferin production measured by adding equal volume of Luciferin Detection Reagent with esterases, and luminescence read after 20 minutes incubation at room temperature.

[2] = test system: RAW 247.6 macrophage cells; experiment: Detection of superoxide production in kinetic mode (media sampling); assay type: cell-based; conditions: 50 μM probe, 20 μM PMA, 10, 20, 30 and 60 minutes, FIG. 7
Description: RAW 247.6 macrophage cells were plated at 30,000 cells per well overnight in DMEM medium with 10% FBS. The following day, the medium was removed, and cells were washed with PBS. 100 μl PBS containing 5 mM glucose, 1 mM MgCl2, 0.5mM CaCl2, 0.05% BSA, and 50 μM Compound 20 were added to the cells in the presence or absence of 20 μM PMA. The cells were placed back at 37° C. in tissue culture incubator. At different time points (10, 20, 30 and 60 minutes), 10 μl was removed from the samples, mixed with 10 μl of Luciferin Detection Reagent with esterases, and luminescence read following a 20 minute incubation at room temperature.

[3] = test system: Human hepatocarcinoma cells (Hep G2); experiment: Detection of superoxide in cells; assay type: cell-based; conditions: probe 12.5 uM, 1 hour at 37° C., FIG. 4
Description: Human hepatocarcinoma cells (Hep G2) were plated into wells of 96-well white-walled assay tissue culture plates. Plated cells were incubated overnight in a humidified tissue culture incubator at 37° C. with 5% CO2. The following day the superoxide probe, Compound 1 (6-(4-hydroxy-3,5-dimethoxyphenoxy)benzo[d]thiazole-2-carbonitrile), was added to the cells in culture medium at a final concentration of 12.5 uM. Subsequently, dimethoxynaphthoquinone (DMNQ; 50 μM) or antimycin A (10 μM) diluted in culture medium was added to the reaction wells and the assay plate(s) were incubated for 1 hour in a humidified tissue culture incubator at 37° C. with 5% C02. For luciferin detection, the luciferin-utilizing luciferase enzyme, UltraGlo (Promega Corporation), was prepared by mixing Luciferin Detection Reagent (Promega), Reconstitution Buffer (Promega), and d-Cysteine (Promega), and one volume was added to the reaction. The plate was mixed using an orbital plate shaker, and luminescence was measured using a GloMax® luminometer.

superoxide = experiment: Cell-free detection of and specificity for superoxide (luciferase luminescence); assay type: biochemical; conditions: probe 25 μM in PBS, FIG. 3
Description: The superoxide probe, Compound 1 (6-(4-hydroxy-3,5-dimethoxyphenoxy)benzo[d]thiazole-2-carbonitrile), was diluted into PBS to 25 μM into wells of a 96-well white-walled assay plate. Subsequently, generators of reactive oxygen and nitrogen species were diluted in PBS and added to the assay plate. The plate mixed using an orbital plate shaker for 5 minutes followed by a 30-minute incubation at room temperature protected from light. For luciferin detection, the luciferin-utilizing luciferase enzyme, UltraGlo (Promega Corporation), was prepared by mixing Luciferin Detection Reagent (Promega), Reconstitution Buffer (Promega), and d-Cysteine (Promega), and one volume was added to the reaction. The plate was mixed using an orbital plate shaker, and luminescence was measured using a GloMax® luminometer. Data are shown in FIG. 3; the blank includes PBS only; HX=hypoxanthine; XO=xanthine oxidase; and SOD=superoxide dismutase. […] This signal decreased in the presence of superoxide dismutase, confirming that superoxide is the source of the signal.

SMILES	increase in luminescence signal versus xanthine oxidase concentration and time (xanthine oxidase; 300 μM xanthine, 10, 20, 30, and 60 minutes at 37° C.)	increase in luminescence signal, dependence on substrate (xanthine oxidase; 25 μl of 300 μM xanthine, serially diluted XO, 37° C.)	luminescence signal with PMA treatment [1]	luminescence signal in the presence of cells compared to medium only control [1]	luminescence signal over time in cells treated with PMA [2]	luminescence signal when cells were treated with DMNQ ([3]; DMNQ 50 μM)	luminescence signal when cells were treated with antimycin A ([3]; antimycin A 10 μM)	luminescence signal in the presence of NONOate (superoxide; 30-minute incubation)	luminescence signal in the presence of Rose Bengal (generates singlet oxygen) (superoxide; 30-minute incubation)	luminescence signal in the presence of hydrogen peroxide (superoxide; 30-minute incubation)	luminescence signal in the presence of sodium nitrite (superoxide; 30-minute incubation)	luminescence signal in the presence of superoxide dismutase (superoxide; HX + XO + SOD)	luminescence signal in the presence of HX and XO (superoxide; hypoxanthine + xanthine oxidase (superoxide generator), 30-minute incubation at room temperature)
COC(=O)[C@H]1CSC(c2nc3ccc(OC(=O)N(C)CCN(C)C(=O)Oc4ccc(OC(C)=O)c(OC(C)=O)c4)cc3s2)=N1 [Compound 20, (S)-4-(((2-((((2-(4-(methoxycarbonyl)-4,5-dihydrothiazol-2-yl)benzo[d]thiazol-6-yl)oxy)carbonyl)(methyl)amino)ethyl)(methyl)carbamoyl)oxy)-1,2-phenylene diacetate]	linear with respect to xanthine oxidase concentration and time	depended on the presence of the xanthine oxidase substrate, xanthine	increased significantly	higher luminescence signal	time dependent increase in signal								
COc1cc(Oc2ccc3nc(C#N)sc3c2)cc(OC)c1O [Compound 1, 6-(4-hydroxy-3,5-dimethoxyphenoxy)benzo[d]thiazole-2-carbonitrile]						increase in signal	increase in signal	Little to no signal	Little to no signal	Little to no signal	Little to no signal	decreased	strong signal
CN(CCN(C)C(=O)Oc1ccc2nc(C3=N[C@@H](C(=O)O)CS3)sc2c1)C(=O)Oc1ccc(O)c(O)c1 [Compound 18, (S)-2-(6-(((2-(((3,4-dihydroxyphenoxy)carbonyl)(methyl)amino)ethyl)(methyl)carbamoyl)oxy)benzo[d]thiazol-2-yl)-4,5-dihydrothiazole-4-carboxylic acid]			increased significantly	higher luminescence signal									
